From PMC7854658, “Structural basis for ligand recognition of the neuropeptide Y Y2 receptor” (Nature Communications, 2021)
Where “and” joins values, the source holds several entries; their conditions need not be identical. Equal values may be shown once.

Biological target: T1, wild-type Y2R (Homo sapiens, UniProt P49146)
T1 construct: expressed in transfected cells; host or cells: HEK293
T1 sequence (P49146 1-381): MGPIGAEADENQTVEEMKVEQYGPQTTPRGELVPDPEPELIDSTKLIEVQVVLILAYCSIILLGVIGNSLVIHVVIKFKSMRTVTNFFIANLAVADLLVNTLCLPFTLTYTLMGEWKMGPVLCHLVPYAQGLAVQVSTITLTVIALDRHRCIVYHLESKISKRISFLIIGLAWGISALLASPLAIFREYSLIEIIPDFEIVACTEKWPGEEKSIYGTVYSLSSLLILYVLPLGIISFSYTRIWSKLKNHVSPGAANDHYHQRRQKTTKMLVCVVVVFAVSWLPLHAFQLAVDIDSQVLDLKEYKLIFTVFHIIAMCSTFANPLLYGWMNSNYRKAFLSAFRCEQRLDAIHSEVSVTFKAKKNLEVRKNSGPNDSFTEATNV
Experiment: NPY-induced IP accumulation (IP-One) with or without 1 μM antagonist
Assay type: cell-based
Conditions: WT
Procedure: The plasmid hY2R_eYFP_pVitro2 encoding the WT Y2R and a fluorophore for investigating the receptor localization was used as template for the generation of receptor point mutations as previously described. Mutagenesis PCR was performed using the Phusion High-Fidelity Polymerase (Thermo Fisher Scientific, Waltham, MA, USA). […] The preparations of the plasmid DNA were performed using the Wizard plus Mini or Midi DNA purification kit (Promega, Madison, WI, USA).
To determine the contribution of residues to antagonist binding, IP-One accumulation assays (Cisbio, Codolet, France) were performed. HEK293 cells were seeded into six-well plates and transiently cotransfected with 3200 ng of receptor plasmid DNA and 800 ng of the chimeric G protein (Gα∆6qi4myr) to redirect the Gαi signaling pathway to the Gαq phospholipase C pathway. Transient transfection was carried out using Metafectene as transfection reagent according to the manufacturer’s protocol (Biontex, Munich, Germany) over night. The cells were then reseeded into white 384-well microplates (Greiner Bio-One, Kremsmünster, Austria) at a density of 15,000 cells per well and grown for additional 24 h.
All dilutions were performed in HBSS containing 20 mM LiCl (stimulation buffer) and DMSO with a final concentration of 0.01%.
To determine the amount of cellular IPs, the FRET acceptor (IP1-d2) and the FRET donor (anti-IP1-Cryptate) were reconstituted and diluted in lysis and detection buffer (1:20) as described in the manufacturer’s protocol. Three microliters of both solutions were added, and the cells were incubated on a tumbler for 60 min.

[1] = 1 μM antagonist, source data Fig. 3

## N=C(N)NCCC[C@H](NC(=O)CC1(CC(=O)N2CCN(C3c4ccccc4NC(=O)c4ccccc43)CC2)CCCC1)C(=O)NCCn1c(=O)n(-c2ccccc2)n(-c2ccccc2)c1=O (stereo partly shown) [BIIE0246]
[1]
  Average EC50 ratio: 157.4
  EC50 ratio (individual experiments): 143.5 and 171.2
EC50(NPY + 1 μM antagonist)/EC50(NPY)
  EC50 ratio: 144 and 171 and 159
EC50 ratio (WT)/EC50 ratio (mutant)
  Ratio change (fold): 1 fold
